Assay results taken from US6987117B2, “Antidepressant azaheterocyclylmethyl derivatives of 1,4-dioxino[2,3-b]pyridine” (Wyeth, priority 2001, dated 2006).
Where a name gives a salt, the structure may show the parent alone.

Legend:
[1] = biological target: T1, human 5-HT1A receptors (Homo sapiens, UniProt P08908); assay: [3H] 8-OHDPAT displacement, 5-HT1A receptor affinity; format: binding
T1 construct: expressed in transfected cells; host or cells: CHO cells (stably transfected)
T1 sequence (P08908 1-422): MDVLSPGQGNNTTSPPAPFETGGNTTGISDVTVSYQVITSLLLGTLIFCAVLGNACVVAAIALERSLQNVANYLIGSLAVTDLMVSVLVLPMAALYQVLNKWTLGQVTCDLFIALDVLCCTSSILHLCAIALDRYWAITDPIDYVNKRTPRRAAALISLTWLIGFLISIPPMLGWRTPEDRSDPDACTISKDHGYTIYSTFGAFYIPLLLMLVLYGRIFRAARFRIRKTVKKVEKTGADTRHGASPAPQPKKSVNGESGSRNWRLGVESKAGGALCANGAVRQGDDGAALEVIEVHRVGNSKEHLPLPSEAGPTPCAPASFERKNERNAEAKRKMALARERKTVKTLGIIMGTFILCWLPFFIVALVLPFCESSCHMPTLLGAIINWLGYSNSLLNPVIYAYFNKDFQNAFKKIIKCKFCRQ
From the text: High affinity for the serotonin 5-HT1A receptor was established by testing the claimed compound's ability to displace [^3H] 8-OHDPAT (dipropylaminotetralin) from the 5-HT1A serotonin receptor following a modification of the procedure of Hall et al., J. Neurochem. 44, 1685 (1985) which utilizes CHO cells stably transfected with human 5-HT1A receptors.

[2] = biological target: T2, cloned human 5-HT1A receptors (Homo sapiens, UniProt P08908); assay: 35S-GTPγS binding assay, 5-HT1A antagonist activity; format: biochemical; settings: reversal of standard agonist 8-OHDPAT; for IC50: read-out: 5-HT1A Function IC50
T2 construct: expressed in transfected cells
T2 sequence (P08908 1-422): T1 sequence (P08908 1-422)
Protocol: Antagonist activity at 5-HT1A receptors was established by using a ^35S-GTPγS binding assay similar to that used by Lazareno and Birdsall (Br. J. Pharmacol. 109: 1120, 1993), in which the test compound's ability to affect the binding of ^35S-GTPγS to membranes containing cloned human 5-HT1A receptors was determined. Agonists produce an increase in binding whereas antagonists produce no increase but rather reverse the effects of the standard agonist 8-OHOPAT. The test compound's maximum inhibitory effect is represented as the Imax, while its potency is defined by the IC50.

[3] = biological target: T3, serotonin transporter (Rattus norvegicus, UniProt P31652); assay: 3H-paroxetine displacement, serotonin transporter affinity; format: binding
T3 construct: displace ^3H-paroxetine from male rat frontal cortical membranes; from tissue; host or cells: male rat frontal cortex membranes
T3 sequence (P31652 whole entry): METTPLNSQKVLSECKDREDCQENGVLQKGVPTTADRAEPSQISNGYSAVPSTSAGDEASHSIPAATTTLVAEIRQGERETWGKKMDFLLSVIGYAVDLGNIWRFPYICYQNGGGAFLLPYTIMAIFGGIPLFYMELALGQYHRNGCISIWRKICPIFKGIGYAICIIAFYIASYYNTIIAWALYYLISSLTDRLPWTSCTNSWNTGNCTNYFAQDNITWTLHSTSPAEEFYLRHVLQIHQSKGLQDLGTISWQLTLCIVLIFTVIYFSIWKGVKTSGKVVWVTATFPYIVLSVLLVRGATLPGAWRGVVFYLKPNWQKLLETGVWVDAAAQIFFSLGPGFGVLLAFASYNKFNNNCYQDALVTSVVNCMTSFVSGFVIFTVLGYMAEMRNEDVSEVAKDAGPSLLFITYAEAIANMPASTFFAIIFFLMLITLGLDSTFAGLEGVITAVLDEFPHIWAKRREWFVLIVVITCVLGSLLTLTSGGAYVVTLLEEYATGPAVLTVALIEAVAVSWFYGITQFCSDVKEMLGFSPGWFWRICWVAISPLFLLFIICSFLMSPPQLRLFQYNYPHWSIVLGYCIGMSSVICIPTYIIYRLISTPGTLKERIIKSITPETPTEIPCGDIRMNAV

C1=C(c2c[nH]c3ccccc23)CCN(C[C@H]2COc3cccnc3O2)C1 (as salt: oxalate) [Example 1]
melting point: 116 °C

Fc1ccc2[nH]cc(C3=CCN(CC4COc5cccnc5O4)CC3)c2c1 (centres unmarked) (as salt: oxalate) [Example 2, 3-{[4-(5-Fluoro-1H-indol-3-yl)-3,6-dihydro-1(2H)-pyridinyl]methyl}-2,3-dihydro{1,4]dioxino[2,3-b]pyridine]
melting point: 124 °C

N#Cc1ccc2[nH]cc(C3=CCN(CC4COc5cccnc5O4)CC3)c2c1 (centres unmarked) (as salt: oxalate) [Example 3, 3-{1-[2,3-Dihydro[1,4]dioxino[2,3-b]pyridin-3-ylmethyl]-1,2,3,6-tetrahydro-4-pyridinyl}-1H-indole-5-carbonitrile]
melting point: 165 °C

Fc1ccc2c(C3=CCN(CC4COc5cccnc5O4)CC3)c[nH]c2c1 (centres unmarked) (as salt: oxalate) [Example 4, 3-{[4-(6-Fluoro-1H-indol-3-yl)-3,6-dihydro-1(2H)-pyridinyl]methyl}-2,3-dihydro[1,4]dioxino[2,3-b]pyridine]
melting point: 120 °C

C1=C(c2c[nH]c3ccccc23)CCN(C[C@H]2COc3cccnc3O2)C1 [Example 1]
Ki [1]: 14.3 nM | IC50 [2]: 197 nM | Ki [3]: 9.5 nM

Fc1ccc2[nH]cc(C3=CCN(CC4COc5cccnc5O4)CC3)c2c1 (centres unmarked) [Example 2, 3-{[4-(5-Fluoro-1H-indol-3-yl)-3,6-dihydro-1(2H)-pyridinyl]methyl}-2,3-dihydro{1,4]dioxino[2,3-b]pyridine]
Ki [1]: 6.81 nM | IC50 [2]: 57 nM | Ki [3]: 2.39 nM

N#Cc1ccc2[nH]cc(C3=CCN(CC4COc5cccnc5O4)CC3)c2c1 (centres unmarked) [Example 3, 3-{1-[2,3-Dihydro[1,4]dioxino[2,3-b]pyridin-3-ylmethyl]-1,2,3,6-tetrahydro-4-pyridinyl}-1H-indole-5-carbonitrile]
Ki [1]: 22.4 nM | 5-HT1A Function Imax (maximum inhibitory effect) [2]: 100% | IC50 [2]: 183 nM | Ki [3]: 2.58 nM

Fc1ccc2c(C3=CCN(CC4COc5cccnc5O4)CC3)c[nH]c2c1 (centres unmarked) [Example 4, 3-{[4-(6-Fluoro-1H-indol-3-yl)-3,6-dihydro-1(2H)-pyridinyl]methyl}-2,3-dihydro[1,4]dioxino[2,3-b]pyridine]
Ki [1]: 10.2 nM | IC50 [2]: 618 nM | Ki [3]: 1.21 nM
